Among the data in patent US20220281831A1, “FUSED-GLUTARIMIDE CRBN LIGANDS AND USES THEREOF” (Kymera Therapeutics, Inc., priority 2019, published 2022) are IC50 values, retold here.

The structures appear in SMILES notation.

This assay has as its target His-tagged CRBN-DDB1 complex (Homo sapiens, UniProt Q96SW2). Kind of assay: Time-Resolved Fluorescence Resonance Energy Transfer (TR-FRET / HTRF) CRBN binding assay, displacement of Cy5-labeled thalidomide. The conditions noted are these: His-CRBN-DDB1, Cy5-thalidomide 8 nM, 1 hour room temperature. The procedure: Time-Resolved Fluorescence Resonance Energy Transfer (TR-FRET) Assay.
Equal volumes of His-tagged CRBN-DDB1 complex (56 nM) was mixed with Eu-cryptate labeled Anti-6HIS-monoclonal antibody (50× dilution from the commercial stock solution, Vender: Cisbio, Cat. #61HI2KLA) in a final buffer containing 20 mM HEPES pH 7.0, 150 mM NaCl, 0.005% Tween-20. […] The mixture were incubated at room temperature for 1 hour. FRET signals were measured on an EnVision plate reader (Perkin Elmer) by exciting at 340 nm and recording emission at both 615 nm as no FRET control and 665 nm as the FRET signals with a 60 microsecond delay. FRET efficiency was calculated as the ratio of fluorescent signals at […]. Quantitative loss of FRET efficiency as a function of compound concentrations was fitted by a four-parameter Logistic Function using GraphPad Prism 7.0 and the IC50 values were reported for each compound.
The compound numbers correspond to the compound numbers in Table 1.
On the technique in general: Time-resolved FRET reads energy transfer from a long-lived donor to a nearby acceptor.

His-tagged CRBN-DDB1 complex, sequence (Q96SW2 whole entry): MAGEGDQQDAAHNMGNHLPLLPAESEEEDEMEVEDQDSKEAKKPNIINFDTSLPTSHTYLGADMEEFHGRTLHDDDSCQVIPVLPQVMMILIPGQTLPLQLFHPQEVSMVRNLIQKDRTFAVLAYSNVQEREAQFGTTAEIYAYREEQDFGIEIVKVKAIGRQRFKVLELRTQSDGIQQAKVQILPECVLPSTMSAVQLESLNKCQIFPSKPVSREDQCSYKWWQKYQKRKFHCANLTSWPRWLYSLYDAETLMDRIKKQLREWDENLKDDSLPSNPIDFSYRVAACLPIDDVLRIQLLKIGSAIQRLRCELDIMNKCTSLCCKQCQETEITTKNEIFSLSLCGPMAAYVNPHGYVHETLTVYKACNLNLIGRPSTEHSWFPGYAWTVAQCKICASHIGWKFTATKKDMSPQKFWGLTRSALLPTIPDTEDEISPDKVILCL
His-tagged CRBN-DDB1 complex, sequence (Q16531 whole entry partner): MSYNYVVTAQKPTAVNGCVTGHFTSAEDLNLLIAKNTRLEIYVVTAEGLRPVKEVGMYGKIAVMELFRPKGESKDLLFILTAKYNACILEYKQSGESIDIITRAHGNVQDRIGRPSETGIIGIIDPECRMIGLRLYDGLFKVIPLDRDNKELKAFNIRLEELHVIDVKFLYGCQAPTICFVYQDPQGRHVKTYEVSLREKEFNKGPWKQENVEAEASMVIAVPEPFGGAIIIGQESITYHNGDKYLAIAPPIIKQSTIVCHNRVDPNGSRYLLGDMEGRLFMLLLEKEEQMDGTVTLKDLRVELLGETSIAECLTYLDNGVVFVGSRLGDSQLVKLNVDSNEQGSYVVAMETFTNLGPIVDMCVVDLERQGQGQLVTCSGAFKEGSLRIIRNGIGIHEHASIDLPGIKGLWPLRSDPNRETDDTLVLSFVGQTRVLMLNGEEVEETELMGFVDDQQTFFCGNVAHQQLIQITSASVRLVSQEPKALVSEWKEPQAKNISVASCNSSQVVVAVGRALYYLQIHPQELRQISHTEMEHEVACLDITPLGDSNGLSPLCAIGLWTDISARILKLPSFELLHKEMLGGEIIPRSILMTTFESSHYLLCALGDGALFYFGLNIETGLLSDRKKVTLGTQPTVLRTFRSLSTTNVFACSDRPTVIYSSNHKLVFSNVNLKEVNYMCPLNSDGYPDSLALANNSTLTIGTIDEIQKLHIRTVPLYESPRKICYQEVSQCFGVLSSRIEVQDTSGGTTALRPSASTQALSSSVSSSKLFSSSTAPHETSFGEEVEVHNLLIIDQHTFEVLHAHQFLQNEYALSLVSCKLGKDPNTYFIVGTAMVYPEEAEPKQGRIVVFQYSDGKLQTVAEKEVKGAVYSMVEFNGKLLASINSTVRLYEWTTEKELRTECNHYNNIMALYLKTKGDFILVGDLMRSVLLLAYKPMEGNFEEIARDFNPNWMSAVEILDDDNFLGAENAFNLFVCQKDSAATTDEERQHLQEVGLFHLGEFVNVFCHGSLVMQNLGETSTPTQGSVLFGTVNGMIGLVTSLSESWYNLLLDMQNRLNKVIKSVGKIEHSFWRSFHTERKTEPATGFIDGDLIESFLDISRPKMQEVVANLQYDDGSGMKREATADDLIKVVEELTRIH

The term IC50 denotes the concentration at which inhibition is half-maximal. Read a low IC50 as higher potency. Turning to `COc1cccc(C(=O)N2C[C@@H]3C(=O)NC(=O)[C@@H]3C2)n1` [Compound I-165], the half-maximal inhibitory concentration (IC50) is > 100 µM.

In the case of `O=C1NC(=O)[C@@H]2CN(Cc3ccccc3)C[C@H]12` [Compound I-328], the half-inhibitory concentration (IC50) is > 100 µM. Then `O=C1CC2(CCN(C(=O)Cc3ccccn3)CC2)CC(=O)N1` [Compound I-352], with > 100 µM; and `O=C1NC(=O)[C@@H]2CN(C(=O)c3ccc(Cl)cc3)C[C@H]12` [Compound I-286], with > 100 µM. Then `CCOC(=O)c1cccc(N2CCC3(CC2)CC(=O)NC(=O)C3)c1` [Compound I-96], with > 100 µM. The value for `Cc1ccc(N2CCC3(CC2)CC(=O)NC(=O)C3)cc1` [Compound I-93] was > 100 µM. `CC(=O)Nc1ccccc1N1C[C@@H]2C(=O)NC(=O)[C@@H]2C1` [Compound I-171]: the IC50 is > 100 µM. The value for `O=C1NC(=O)[C@@H]2CN(Cc3cccc4ccccc34)C[C@H]12` [Compound I-325] was > 100 µM; that for `O=C1CC2(CCc3cc(Br)ccc32)C(=O)N1` (centres unmarked) [Compound I-377] was 30 to 100 µM; that for `O=C1NC(=O)[C@@H]2CN(c3ccc(-c4ccccc4)c(F)c3)C[C@H]12` [Compound I-120] was > 100 µM.

`O=C1CC2(CCN(C(=O)c3ccnc(Cl)c3)CC2)CC(=O)N1` [Compound I-373]: the 50% inhibitory concentration (IC50) was > 100 µM. The value for `O=C1CC2(CCN(c3ccc(O)cc3)CC2)CC(=O)N1` [Compound I-103] was > 100 µM; that for `O=C1CC2(CCN(Cc3ccc(Oc4ccccc4)cc3)CC2)CC(=O)N1` [Compound I-344] was > 100 µM. The value for `Cc1ncoc1C(=O)N1C[C@@H]2C(=O)NC(=O)[C@@H]2C1` [Compound I-309] was > 100 µM; that for `CC(C1CC1)N1C[C@@H]2C(=O)NC(=O)[C@@H]2C1` (some centres unmarked) [Compound I-282] was > 100 µM. Then `O=C1CCc2cccc(Oc3ccccc3)c2C(=O)N1` [Compound I-209, 9-Phenoxy-4,5-dihydro-2H-2-benzazepine-1,3-dione], with > 100 µM; and `O=C1CC2(CCNCC2)CC(=O)N1` [Compound I-372], with > 100 µM; and `Cc1ccccc1N1C[C@@H]2C(=O)NC(=O)[C@@H]2C1` [Compound I-121], with > 100 µM. Turning to `O=C1CC2(CCN(c3ccc(-c4ccccc4)cc3)CC2)CC(=O)N1` [Compound I-98], the IC50 is > 100 µM.

The compound `O=C1NC(=O)[C@@H]2CN(Cc3ccc([N+](=O)[O-])s3)C[C@H]12` [Compound I-295] gave a half-maximal inhibitory concentration (IC50) of 30 to 100 µM. As for `O=C1CC2(CCN(CCc3ccccc3)CC2)CC(=O)N1` [Compound I-357], the IC50 is > 100 µM. Then `N#Cc1ccccc1N1CCC2(CC1)CC(=O)NC(=O)C2` [Compound I-111], with > 100 µM; and `O=C1CC2(CCN(C(=O)COCc3ccccc3)CC2)CC(=O)N1` [Compound I-334], with > 100 µM.

For the compound `O=C1NC(=O)[C@@H]2CNC[C@H]12` [Compound I-327], the IC50 was > 100 µM. The value for `Nc1ccc2c(c1)C1(CC(=O)NC1=O)C(=O)N2` (centres unmarked) [Compound I-173] was > 100 µM; that for `O=C1CC2(CCN(C(=O)c3ccco3)CC2)CC(=O)N1` [Compound I-360] was > 100 µM.

Regarding `O=C1CC2(CCN(Cc3ccc[nH]3)CC2)CC(=O)N1` [Compound I-337], the 50% inhibitory concentration (IC50) was > 100 µM. Then `O=C1NC(=O)[C@@H]2CN(c3ccc(Br)cc3)C[C@H]12` [Compound I-123], with 30 to 100 µM. The value for `Cc1ccc(Oc2ccccc2)c2c1CC(=O)NC2=O` [Compound I-279] was 30 to 100 µM; that for `O=C1NC(=O)[C@@H]2CN(C(=O)c3ccc(O)cc3)C[C@H]12` [Compound I-291] was > 100 µM. Then `O=CNc1ccccc1N1C[C@@H]2C(=O)NC(=O)[C@@H]2C1` [Compound I-172], with > 100 µM; and `O=C1NC(=O)[C@@H]2CN(c3ccc(O)cc3)C[C@H]12` [Compound I-140], with > 100 µM; and `O=C1NC(=O)[C@@H]2CN(Cc3cccc(O)c3)C[C@H]12` [Compound I-287], with > 100 µM. Consider `O=C1NC(=O)[C@@H]2CN(Cc3c[nH]cn3)C[C@H]12` [Compound I-297], for which the IC50 was > 100 µM. Consider `O=C1NC(=O)[C@@H]2CN(C(=O)c3cc(C(F)(F)F)ccn3)C[C@H]12` [Compound I-166], for which the IC50 is > 100 µM. The value for `CC(C)(C)OC(=O)NCc1ccc(N2C[C@@H]3C(=O)NC(=O)[C@@H]3C2)cc1` [Compound I-145] was > 100 µM; that for `O=C1NC(=O)[C@@H]2CN(C(=O)c3n[nH]c4ccccc34)C[C@H]12` [Compound I-302] was > 100 µM. The value for `NC(=O)c1ccccc1N1C[C@@H]2C(=O)NC(=O)[C@@H]2C1` [Compound I-170] was > 100 µM; that for `Cc1cc(C(=O)N2CCC3(CC2)CC(=O)NC(=O)C3)ccn1` [Compound I-340] was > 100 µM; that for `O=C1CC2(CCN(C(=O)c3ccc4ccccc4c3)CC2)CC(=O)N1` [Compound I-368] was > 100 µM. Then `O=C1CC2(CCN(Cc3ccc(F)c4ccccc34)CC2)CC(=O)N1` [Compound I-336], with > 100 µM; and `O=C1CC2(CCN(C(=O)c3c[nH]cn3)CC2)CC(=O)N1` [Compound I-354], with > 100 µM. On to `CNC(=O)c1cccc(N2C[C@@H]3C(=O)NC(=O)[C@@H]3C2)c1` [Compound I-177], for which the IC50 is > 100 µM.

The compound `Cc1nn(C)c2nc(N3CCC4(CC3)CC(=O)NC(=O)C4)sc12` [Compound I-376] yielded a half-inhibitory concentration (IC50) of 30 to 100 µM. As to `CCCOc1ccc(N2C[C@@H]3C(=O)NC(=O)[C@@H]3C2)cc1` [Compound I-138], the IC50 is > 100 µM. Then `O=C(NC1CC1)c1ccc(N2C[C@@H]3C(=O)NC(=O)[C@@H]3C2)cc1` [Compound I-127], with > 100 µM. The value for `O=C1NC(=O)[C@@H]2CN(C(=O)c3cnccn3)C[C@H]12` [Compound I-307] was > 100 µM. Then `COC(=O)c1ccc(N2C[C@@H]3C(=O)NC(=O)[C@@H]3C2)cc1` [Compound I-122], with > 100 µM; and `O=C1CC2(CCN(c3cccc(Cl)c3)CC2)CC(=O)N1` [Compound I-89], with > 100 µM. Turning to `O=C1NC(=O)[C@@H]2CN(C(=O)c3cccs3)C[C@H]12` [Compound I-321], the IC50 was > 100 µM.

Regarding `O=C1NC(=O)[C@@H]2CN(Cc3ccc(Oc4ccccc4)cc3)C[C@H]12` [Compound I-311], the IC50 lay within 30 to 100 µM. Then `O=C1NC(=O)[C@@H]2CN(c3ccccc3Cl)C[C@H]12` [Compound I-153], with > 100 µM. The value for `O=C1NC(=O)[C@@H]2CN(C(=O)c3coc(COc4ccc5c(c4)OCO5)n3)C[C@H]12` [Compound I-375] was 30 to 100 µM; that for `Cc1cccc(C(=O)N2C[C@@H]3C(=O)NC(=O)[C@@H]3C2)n1` [Compound I-164] was > 100 µM; that for `O=C1CC2(CCN(c3ccc(F)cc3)CC2)CC(=O)N1` [Compound I-92] was 30 to 100 µM. The value for `O=C1CC2(CCN(c3cccc4ncccc34)CC2)CC(=O)N1` [Compound I-94] was > 100 µM; that for `Cc1ccccc1-n1cc2c(n1)CC(=O)NC2=O` [Compound I-35, 2-(2-methylphenyl)-5H,7H-pyrazolo[4,3-c]pyridine-4,6-dione] was > 100 µM; that for `O=C1CC2(CCN(c3ccc(C(=O)NC4CC4)cc3)CC2)CC(=O)N1` [Compound I-90] was > 100 µM. With `N#Cc1cccc(N2C[C@@H]3C(=O)NC(=O)[C@@H]3C2)c1` [Compound I-179], the half-inhibitory concentration (IC50) was > 100 µM. Then `O=C1NC(=O)[C@@H]2CN(C(=O)C3CC3)C[C@H]12` [Compound I-306], with > 100 µM.

`CN(C)c1ccc(CN2CCC3(CC2)CC(=O)NC(=O)C3)cc1` [Compound I-332]: the half-inhibitory concentration (IC50) was > 100 µM. The value for `O=C1NC(=O)[C@@H]2CN(C(=O)c3cncs3)C[C@H]12` [Compound I-318] was > 100 µM; that for `O=C1CC2(CCN(C(=O)C3CC3)CC2)CC(=O)N1` [Compound I-362] was > 100 µM. The value for `O=C1Cc2cccc(Oc3ccccc3C(F)(F)F)c2C(=O)N1` [Compound I-210, 8-[2-(Trifluoromethyl)phenoxy]-2,4-dihydroisoquinoline-1,3-dione] was < 10 µM; that for `O=C1CC2(CCN(C(=O)c3cnon3)CC2)CC(=O)N1` [Compound I-364] was > 100 µM; that for `CC(=O)Nc1cccc(N2CCC3(CC2)CC(=O)NC(=O)C3)c1` [Compound I-100] was > 100 µM. The value for `O=C1NC(=O)c2cc(NC(=O)N3CC=C(c4ccc(O)cc4)CC3)ccc21` [Compound I-378] was 30 to 100 µM; that for `O=C1CC2(CCN(C(=O)c3cnco3)CC2)CC(=O)N1` [Compound I-353] was > 100 µM. For `O=C1NC(=O)[C@@H]2CN(C3CCN(Cc4ccccc4)CC3)C[C@H]12` [Compound I-296], the IC50 is > 100 µM. The value for `O=C1CC2(CCN(Cc3ccc([N+](=O)[O-])s3)CC2)CC(=O)N1` [Compound I-330] was 30 to 100 µM; that for `Cc1ncoc1-c1ccc2c(c1)C(=O)NC2=O` [Compound I-32, 5-(4-methyl-1,3-oxazol-5-yl)-2H-isoindole-1,3-dione] was > 100 µM.
